Reference: paper doi:10.1101/2024.08.13.607785v1 (biorxiv, 2024)
Like-named read-outs stand apart in the source and are kept apart here. One block for each compound: values may come before it.

Experiments:
Experiment in all cases: biochemical
Parameters in all cases: species or system human cell line lysate
[1] = target: Serine/threonine-protein kinase 35 ; STK35 ; Q8TDR2 (Homo sapiens, UniProt Q8TDR2)
[2] = target: Serine/threonine-protein kinase MRCK gamma ; CDC42BPG ; Q6DT37 (Homo sapiens, UniProt Q6DT37)
[3] = target: Wee1-like protein kinase ; WEE1 ; P30291 (Homo sapiens, UniProt P30291)
Wee1-like protein kinase ; WEE1 ; P30291, sequence (P30291 whole entry): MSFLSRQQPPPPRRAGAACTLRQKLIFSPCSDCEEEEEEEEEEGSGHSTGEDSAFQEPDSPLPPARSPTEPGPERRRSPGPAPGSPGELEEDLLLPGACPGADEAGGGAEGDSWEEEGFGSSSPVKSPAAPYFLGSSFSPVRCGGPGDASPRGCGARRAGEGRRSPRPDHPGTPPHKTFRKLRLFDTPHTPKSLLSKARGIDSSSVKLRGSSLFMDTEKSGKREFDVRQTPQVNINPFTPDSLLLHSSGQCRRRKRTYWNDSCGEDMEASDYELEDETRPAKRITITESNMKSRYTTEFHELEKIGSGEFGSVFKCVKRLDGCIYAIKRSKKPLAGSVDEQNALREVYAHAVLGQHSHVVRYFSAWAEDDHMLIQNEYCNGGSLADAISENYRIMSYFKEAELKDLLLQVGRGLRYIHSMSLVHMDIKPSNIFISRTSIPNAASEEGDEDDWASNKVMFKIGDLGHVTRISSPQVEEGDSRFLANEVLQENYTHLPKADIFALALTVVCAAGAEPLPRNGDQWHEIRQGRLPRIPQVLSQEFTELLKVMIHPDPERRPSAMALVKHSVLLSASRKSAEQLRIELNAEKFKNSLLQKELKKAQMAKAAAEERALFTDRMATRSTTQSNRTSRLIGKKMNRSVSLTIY

[4] = target: Serine/threonine-protein kinase SIK2 ; SIK2 ; Q9H0K1 (Homo sapiens, UniProt Q9H0K1)
Serine/threonine-protein kinase SIK2 ; SIK2 ; Q9H0K1, sequence (Q9H0K1 whole entry, one chain of several): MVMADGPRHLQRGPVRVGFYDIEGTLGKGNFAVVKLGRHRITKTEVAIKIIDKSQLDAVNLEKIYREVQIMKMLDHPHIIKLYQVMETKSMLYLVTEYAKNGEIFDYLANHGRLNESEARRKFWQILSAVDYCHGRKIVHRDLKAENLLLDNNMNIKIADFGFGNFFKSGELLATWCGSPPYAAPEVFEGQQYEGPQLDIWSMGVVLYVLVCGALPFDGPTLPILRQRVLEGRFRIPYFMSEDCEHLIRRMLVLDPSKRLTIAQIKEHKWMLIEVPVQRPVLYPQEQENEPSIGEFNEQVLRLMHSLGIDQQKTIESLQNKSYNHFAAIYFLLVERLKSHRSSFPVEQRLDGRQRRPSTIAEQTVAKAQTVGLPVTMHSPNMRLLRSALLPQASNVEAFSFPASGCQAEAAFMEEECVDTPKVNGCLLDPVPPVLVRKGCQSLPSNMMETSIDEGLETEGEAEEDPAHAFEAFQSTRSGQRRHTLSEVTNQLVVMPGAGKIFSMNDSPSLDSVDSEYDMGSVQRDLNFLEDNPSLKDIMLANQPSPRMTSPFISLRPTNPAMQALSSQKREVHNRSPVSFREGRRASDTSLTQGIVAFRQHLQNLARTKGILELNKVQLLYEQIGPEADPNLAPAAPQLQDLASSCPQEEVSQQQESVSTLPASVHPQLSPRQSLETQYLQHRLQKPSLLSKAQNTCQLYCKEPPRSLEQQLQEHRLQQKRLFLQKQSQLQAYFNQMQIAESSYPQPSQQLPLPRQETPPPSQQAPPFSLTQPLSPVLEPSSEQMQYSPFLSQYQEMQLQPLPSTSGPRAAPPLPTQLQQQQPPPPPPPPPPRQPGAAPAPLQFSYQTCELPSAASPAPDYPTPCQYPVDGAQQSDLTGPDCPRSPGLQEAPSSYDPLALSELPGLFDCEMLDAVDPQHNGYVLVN

[5] = target: Mitogen-activated protein kinase 6 ; MAPK6 ; Q16659 (Homo sapiens, UniProt Q16659)
[6] = target: Glycosaminoglycan xylosylkinase ; FAM20B ; O75063 (Homo sapiens, UniProt O75063)
Glycosaminoglycan xylosylkinase ; FAM20B ; O75063, sequence (O75063 whole entry): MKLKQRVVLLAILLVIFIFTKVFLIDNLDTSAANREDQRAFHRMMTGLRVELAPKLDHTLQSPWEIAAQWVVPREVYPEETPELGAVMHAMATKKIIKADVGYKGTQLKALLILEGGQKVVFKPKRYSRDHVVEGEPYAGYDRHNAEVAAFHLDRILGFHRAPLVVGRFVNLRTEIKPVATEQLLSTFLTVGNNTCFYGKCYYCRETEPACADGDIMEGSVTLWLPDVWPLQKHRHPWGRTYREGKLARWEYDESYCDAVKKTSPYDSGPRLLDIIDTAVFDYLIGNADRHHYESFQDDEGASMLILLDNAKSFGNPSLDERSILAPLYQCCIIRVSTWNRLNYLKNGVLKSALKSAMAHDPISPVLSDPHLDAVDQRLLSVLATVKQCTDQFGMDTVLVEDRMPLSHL

[7] = target: Protein-tyrosine kinase 2-beta ; PTK2B ; Q14289 (Homo sapiens, UniProt Q14289)
[8] = target: Tyrosine-protein kinase Fer ; FER ; P16591 (Homo sapiens, UniProt P16591)
[9] = target: Isoform 1A of Mitogen-activated protein kinase kinase kinase 7 ; MAP3K7 ; O43318-2 (Homo sapiens, UniProt O43318)
[10] = target: Mitogen-activated protein kinase kinase kinase 12 ; MAP3K12 ; Q12852 (Homo sapiens, UniProt Q12852)
[11] = target: Microtubule-associated serine/threonine-protein kinase 2 ; MAST2 ; Q6P0Q8 (Homo sapiens, UniProt Q6P0Q8)
[12] = target: Calcium/calmodulin-dependent protein kinase type II subunit delta ; CAMK2D ; Q13557 (Homo sapiens, UniProt Q13557)
Calcium/calmodulin-dependent protein kinase type II subunit delta ; CAMK2D ; Q13557, sequence (Q13557 whole entry, one chain of several): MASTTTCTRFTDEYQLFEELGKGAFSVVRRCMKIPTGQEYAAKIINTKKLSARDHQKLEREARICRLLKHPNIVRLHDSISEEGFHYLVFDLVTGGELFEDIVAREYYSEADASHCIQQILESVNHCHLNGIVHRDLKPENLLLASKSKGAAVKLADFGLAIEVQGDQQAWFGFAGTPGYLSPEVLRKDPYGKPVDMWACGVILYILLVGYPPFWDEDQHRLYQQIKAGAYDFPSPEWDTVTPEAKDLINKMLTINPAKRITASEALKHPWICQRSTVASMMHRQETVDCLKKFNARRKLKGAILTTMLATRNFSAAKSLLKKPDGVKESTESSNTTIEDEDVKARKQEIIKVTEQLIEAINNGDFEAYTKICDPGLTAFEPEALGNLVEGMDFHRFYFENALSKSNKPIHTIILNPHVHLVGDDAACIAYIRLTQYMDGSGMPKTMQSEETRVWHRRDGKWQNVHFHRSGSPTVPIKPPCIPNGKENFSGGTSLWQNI

[13] = target: T1, Dual specificity mitogen-activated protein kinase kinase 3 ; MAP2K3 ; P46734 (Homo sapiens, UniProt P46734)
T1 sequence (P46734 1-347): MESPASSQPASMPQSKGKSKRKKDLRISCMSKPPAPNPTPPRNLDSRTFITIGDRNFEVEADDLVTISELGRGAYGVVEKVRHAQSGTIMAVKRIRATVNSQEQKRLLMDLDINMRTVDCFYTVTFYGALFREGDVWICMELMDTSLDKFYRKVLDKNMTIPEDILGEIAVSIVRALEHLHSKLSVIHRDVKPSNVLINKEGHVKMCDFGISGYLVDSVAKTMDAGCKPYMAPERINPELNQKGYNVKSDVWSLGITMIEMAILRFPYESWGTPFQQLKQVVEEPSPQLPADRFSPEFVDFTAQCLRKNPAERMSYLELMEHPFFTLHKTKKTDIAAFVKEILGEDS

[14] = target: Adenylate kinase isoenzyme 6 ; AK6 ; Q9Y3D8 (Homo sapiens, UniProt Q9Y3D8)
Adenylate kinase isoenzyme 6 ; AK6 ; Q9Y3D8, sequence (Q9Y3D8 whole entry): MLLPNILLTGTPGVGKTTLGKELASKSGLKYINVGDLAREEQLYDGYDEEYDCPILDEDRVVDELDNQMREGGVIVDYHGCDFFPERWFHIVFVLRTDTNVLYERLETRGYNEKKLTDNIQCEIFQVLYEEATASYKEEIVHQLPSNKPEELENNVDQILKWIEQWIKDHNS

[15] = target: Tyrosine-protein kinase Fes/Fps ; FES ; P07332 (Homo sapiens, UniProt P07332)
Tyrosine-protein kinase Fes/Fps ; FES ; P07332, sequence (P07332 whole entry, one chain of several): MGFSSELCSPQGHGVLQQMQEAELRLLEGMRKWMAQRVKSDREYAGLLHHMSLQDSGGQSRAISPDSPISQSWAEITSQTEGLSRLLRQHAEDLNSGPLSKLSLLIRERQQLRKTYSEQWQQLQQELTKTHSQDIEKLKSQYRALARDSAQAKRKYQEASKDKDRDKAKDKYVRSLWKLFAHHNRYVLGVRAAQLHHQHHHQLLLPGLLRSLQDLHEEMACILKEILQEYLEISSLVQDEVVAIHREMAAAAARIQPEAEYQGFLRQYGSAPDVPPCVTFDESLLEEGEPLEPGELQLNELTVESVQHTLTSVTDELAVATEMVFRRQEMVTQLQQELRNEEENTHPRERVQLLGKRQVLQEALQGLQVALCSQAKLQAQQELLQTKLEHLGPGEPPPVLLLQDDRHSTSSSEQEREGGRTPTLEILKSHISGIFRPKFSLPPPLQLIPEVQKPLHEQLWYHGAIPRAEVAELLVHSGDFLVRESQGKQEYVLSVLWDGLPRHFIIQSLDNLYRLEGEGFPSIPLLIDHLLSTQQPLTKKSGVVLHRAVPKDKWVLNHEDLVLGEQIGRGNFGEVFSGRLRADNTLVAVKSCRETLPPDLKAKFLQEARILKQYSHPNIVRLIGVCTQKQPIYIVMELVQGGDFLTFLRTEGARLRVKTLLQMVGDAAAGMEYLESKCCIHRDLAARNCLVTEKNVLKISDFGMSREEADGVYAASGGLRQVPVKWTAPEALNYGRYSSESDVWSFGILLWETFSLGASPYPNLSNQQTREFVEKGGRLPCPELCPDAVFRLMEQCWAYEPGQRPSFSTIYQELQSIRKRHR

[16] = target: STE20-like serine/threonine-protein kinase ; SLK ; Q9H2G2 (Homo sapiens, UniProt Q9H2G2)
[17] = target: RAC-gamma serine/threonine-protein kinase ; AKT3 ; Q9Y243 (Homo sapiens, UniProt Q9Y243)
RAC-gamma serine/threonine-protein kinase ; AKT3 ; Q9Y243, sequence (Q9Y243 whole entry, canonical isoform, one chain of several): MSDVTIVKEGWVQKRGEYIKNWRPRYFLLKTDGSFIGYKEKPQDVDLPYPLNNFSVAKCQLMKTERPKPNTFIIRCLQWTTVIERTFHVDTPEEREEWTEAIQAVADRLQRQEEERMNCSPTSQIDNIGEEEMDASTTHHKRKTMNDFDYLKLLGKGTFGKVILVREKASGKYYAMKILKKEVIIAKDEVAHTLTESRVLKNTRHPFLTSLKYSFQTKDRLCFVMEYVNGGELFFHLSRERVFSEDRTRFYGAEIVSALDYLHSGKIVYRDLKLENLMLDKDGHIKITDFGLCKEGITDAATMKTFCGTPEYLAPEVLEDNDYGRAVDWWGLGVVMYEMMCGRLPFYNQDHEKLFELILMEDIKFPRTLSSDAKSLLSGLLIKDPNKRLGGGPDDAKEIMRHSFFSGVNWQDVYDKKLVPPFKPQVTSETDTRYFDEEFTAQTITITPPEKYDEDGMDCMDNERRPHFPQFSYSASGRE

[18] = target: Isoform 2 of Serine/threonine-protein kinase TAO2 ; TAOK2 ; Q9UL54-2 (Homo sapiens, UniProt Q9UL54)
[19] = target: MAP/microtubule affinity-regulating kinase 4 ; MARK4 ; Q96L34 (Homo sapiens, UniProt Q96L34)
[20] = target: Serine/threonine-protein kinase/endoribonuclease IRE1 ; ERN1 ; O75460 (Homo sapiens, UniProt O75460)
Serine/threonine-protein kinase/endoribonuclease IRE1 ; ERN1 ; O75460, sequence (O75460 whole entry, one chain of several): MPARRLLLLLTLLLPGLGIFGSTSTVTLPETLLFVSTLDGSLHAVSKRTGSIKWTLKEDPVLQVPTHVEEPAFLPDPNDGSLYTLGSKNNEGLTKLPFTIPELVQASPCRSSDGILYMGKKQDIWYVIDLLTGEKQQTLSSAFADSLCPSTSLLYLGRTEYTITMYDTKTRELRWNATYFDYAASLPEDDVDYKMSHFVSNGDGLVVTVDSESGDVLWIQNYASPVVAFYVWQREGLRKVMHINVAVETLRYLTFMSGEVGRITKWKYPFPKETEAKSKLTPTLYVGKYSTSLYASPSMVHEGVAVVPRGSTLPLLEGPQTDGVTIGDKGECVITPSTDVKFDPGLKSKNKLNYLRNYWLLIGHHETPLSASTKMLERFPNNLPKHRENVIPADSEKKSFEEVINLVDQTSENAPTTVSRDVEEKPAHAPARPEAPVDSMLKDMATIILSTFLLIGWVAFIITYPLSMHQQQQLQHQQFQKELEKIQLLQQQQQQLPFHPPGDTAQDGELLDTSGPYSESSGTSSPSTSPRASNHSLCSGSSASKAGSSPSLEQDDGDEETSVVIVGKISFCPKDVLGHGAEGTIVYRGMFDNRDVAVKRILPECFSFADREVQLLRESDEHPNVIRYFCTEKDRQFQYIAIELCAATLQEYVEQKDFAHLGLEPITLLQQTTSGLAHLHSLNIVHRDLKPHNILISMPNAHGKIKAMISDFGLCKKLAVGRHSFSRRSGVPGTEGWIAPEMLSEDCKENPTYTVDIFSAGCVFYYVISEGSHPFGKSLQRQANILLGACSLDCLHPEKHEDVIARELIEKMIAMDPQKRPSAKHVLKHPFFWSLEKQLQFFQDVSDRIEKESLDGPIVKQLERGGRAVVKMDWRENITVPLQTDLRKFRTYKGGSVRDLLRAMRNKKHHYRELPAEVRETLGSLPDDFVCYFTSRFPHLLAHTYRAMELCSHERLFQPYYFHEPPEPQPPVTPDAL

[21] = read-out: BAY-1143572 (10 µM) / %Intensity relative to DMSO
[22] = read-out: BAY-1251152 (10 µM) / %Intensity relative to DMSO

- remaining activity at 10 µM [1, 21]: 115%
- remaining activity at 10 µM [2, 21]: 102%
- remaining activity at 10 µM [3, 21]: 101%
- remaining activity at 10 µM [4, 21]: 102%
- remaining activity at 10 µM [5, 21]: 106%
- remaining activity at 10 µM [6, 21]: 141%
- remaining activity at 10 µM [7, 21]: 217%
- remaining activity at 10 µM [8, 21]: 112%
- remaining activity at 10 µM [9, 21]: 116%
- remaining activity at 10 µM [10, 21]: 114%
- remaining activity at 10 µM [11, 21]: 42.2%
- remaining activity at 10 µM [12, 21]: 94.4%
- remaining activity at 10 µM [13, 21]: 136%
- remaining activity at 10 µM [14, 21]: 34.2%
- remaining activity at 10 µM [15, 21]: 102%
- remaining activity at 10 µM [16, 21]: 97.7%
- remaining activity at 10 µM [17, 21]: 125%
- remaining activity at 10 µM [18, 21]: 95.8%
- remaining activity at 10 µM [19, 21]: 110%
- remaining activity at 10 µM [20, 21]: 133%
SMILES: COc1cc(F)ccc1-c1ncnc(Nc2cccc(C[S@](C)(=N)=O)c2)n1 [BAY-1143572]

- remaining activity at 10 µM [1, 22]: 113%
- remaining activity at 10 µM [2, 22]: 103%
- remaining activity at 10 µM [3, 22]: 102%
- remaining activity at 10 µM [4, 22]: 106%
- remaining activity at 10 µM [5, 22]: 142%
- remaining activity at 10 µM [6, 22]: 123%
- remaining activity at 10 µM [7, 22]: 176%
- remaining activity at 10 µM [8, 22]: 103%
- remaining activity at 10 µM [9, 22]: 113%
- remaining activity at 10 µM [10, 22]: 109%
- remaining activity at 10 µM [11, 22]: 32.9%
- remaining activity at 10 µM [12, 22]: 90.9%
- remaining activity at 10 µM [13, 22]: 119%
- remaining activity at 10 µM [14, 22]: 47.6%
- remaining activity at 10 µM [15, 22]: 96.1%
- remaining activity at 10 µM [16, 22]: 53.8%
- remaining activity at 10 µM [17, 22]: 127%
- remaining activity at 10 µM [18, 22]: 76.6%
- remaining activity at 10 µM [19, 22]: 105%
- remaining activity at 10 µM [20, 22]: 131%
SMILES: COc1cc(F)ccc1-c1cc(Nc2cc(CS(C)(=N)=O)ccn2)ncc1F (stereo not shown) [BAY-1251152]
